Data on 1 compound can be found in patent US20240238290A1, “USE OF COMPLEMENT FACTOR D INHIBITOR FOR TREATMENT OF GENERALIZED MYASTHENIA GRAVIS” (Alexion Pharmaceuticals, Inc., priority 2021, published 2024).

Data set [1] deals with FD (complement factor D) (Homo sapiens, UniProt P00746). The experiment in a line: Inhibition of factor D.
The test system of data set [2] is complement alternative pathway (AP) activity. The data set can be described thus: AP inhibition in the AP Wieslab assay (PD), Phase 1 healthy volunteer studies. The format is in vivo, human. The method, then: (§1) In addition, both dosage regimens provided complete (>90%) and sustained inhibition of AP activity throughout the 12-hour dosing interval. Therefore, 120 mg BID is selected as the minimum therapeutic dosage.

Data set [3] is described as follows: Phase 1 single ascending and multiple ascending dose studies, PK. The data set is classed as in vivo, human. To be noted: for PK exposures versus dose: healthy volunteers.
A short description of data set [4]: Safety and safety margin of multiple dose regimens versus NOAEL exposures from nonclinical chronic toxicology studies. The data set is classed as in vivo, human. The note with it: multiple dose study. The method, then:
as §1

The subject of data set [5] is plasma Bb. The experiment in a line: Biomarkers of AP activity in vivo (plasma Bb levels).

Sequence of FD (complement factor D) (P00746 26-253): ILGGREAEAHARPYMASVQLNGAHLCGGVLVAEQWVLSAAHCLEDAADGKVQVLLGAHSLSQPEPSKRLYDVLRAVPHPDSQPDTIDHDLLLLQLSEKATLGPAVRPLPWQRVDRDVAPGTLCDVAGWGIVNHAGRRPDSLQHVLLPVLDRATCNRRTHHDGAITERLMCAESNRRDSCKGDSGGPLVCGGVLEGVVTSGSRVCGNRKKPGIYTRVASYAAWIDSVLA

For the compound `CC(=O)c1nn(CC(=O)N2[C@H](C(=O)Nc3nc(Br)ccc3C)C[C@@]3(C)C[C@@H]23)c2ccc(-c3cnc(C)nc3)cc12` [Compound 1, vemircopan], the “inhibition of FD” value in data set [1] is given as “potent inhibitor”. In addition, in data set [2] (Homo sapiens, 120 mg BID, sustained throughout the 12-hour dosing interval), the inhibition (as a rule, the percentage by which the read-out fell short of the control) at 120 mg is greater than 90%. For the same compound, the inhibition at 200 mg in data set [2] (Homo sapiens, 200 mg BID, sustained throughout the 12-hour dosing interval) was greater than 90%. Moreover, the “PD activity as determined by AP inhibition in the AP Wieslab assay” value in data set [2] (healthy volunteers, Phase 1) is recorded as “increased with increasing exposure”. Besides, in data set [2] (in vivo), the “inhibition of complement AP activity in vivo” value is on record as “dose dependent inhibition”. Moreover, the “variability in the PK and PD data and PK/PD relationship” value in data set [3] (Phase 1 healthy volunteers) is “large variabilities”. Further, the “PK exposures versus dose” value in data set [3] (following single doses) is given as “increased dose proportionally”; in data set [3] (multiple doses at steady state, 40 mg BID to 200 mg BID), “greater than dose proportional manner”. Moreover, the “safety and effectiveness of dosage regimen” value in data set [4] (120 mg BID) was “safe and effective”; in data set [4] (200 mg BID), “safe and effective”. The “safety margin in AUC0-24 over exposures at NOAEL” value in data set [4] (120 mg BID) and in data set [4] (200 mg BID) was no less than 10 fold in each case. The “safety margin in Cmax over exposures at NOAEL” value in data set [4] (120 mg BID) and in data set [4] (200 mg BID) was no less than 10 fold throughout. Moreover, in data set [5], the “plasma Bb levels following administration” value was “significant dose-dependent reductions”.
